This passage reports Activity results from ChEMBL document CHEMBL4619760, “Anti-inflammatory Efficacy of Combined Natural Alkaloid Berberine and S1PR Modulator Fingolimod at Low Doses in Ulcerative Colitis Preclinical Models” (J Nat Prod, 2020).

Calls of active or inactive are those of the source. The calls are words filed in the database; no cut-off is given here.

In series [1] the test system is Mus musculus. In words: Anti-colitis activity against DSS-induced C57BL/6 mouse model of chronic relapsing colitis assessed as reduction in DSS-induced mononuclear cell infiltration in spleen at 0.3 mg/kg, po administered once daily for 30 days starting from day 13 post DSS-challenge by hematoxylin and eosin staining based light microscopic analysis. In kind it is functional, organism-based.

The subject of series [2] is Mus musculus. Put plainly: Anti-colitis activity against DSS-induced C57BL/6 mouse model of chronic relapsing colitis assessed as reduction in DSS-induced spleen swelling at 0.15 mg/kg, po administered once daily for 30 days starting from day 13 post DSS-challenge cotreated with 20 mg/kg berberine. In kind it is functional, organism-based.
In series [3] the test system is Mus musculus. Put plainly: Anti-colitis activity against DSS-induced C57BL/6 mouse model of chronic relapsing colitis assessed as reduction in DSS-induced spleen swelling at 0.3 mg/kg, po administered once daily for 30 days starting from day 13 post DSS-challenge. In kind it is functional, organism-based.
For series [4], the system named is Mus musculus. Put plainly: Anti-colitis activity against DSS-induced C57BL/6 mouse model of chronic relapsing colitis assessed as reduction in DSS-induced inflammatory cell infiltration in colon at 0.15 mg/kg, po administered once daily for 30 days starting from day 13 post DSS-challenge cotreated with 20 mg/kg berberine. In kind it is functional, organism-based.

In series [5] the test system is Mus musculus. In words: Anti-colitis activity against DSS-induced C57BL/6 mouse model of subchronic relapsing colitis assessed as reduction in stool bleeding scores at 0.3 mg/kg, po administered once daily for 14 days starting from day 5 post DSS challenge and measured on day 19. In kind it is functional, organism-based.
In series [6] the test system is Mus musculus. Put plainly: Anti-colitis activity against DSS-induced C57BL/6 mouse model of chronic relapsing colitis assessed as reversal of DSS-induced colon shortening at 0.3 mg/kg, po administered once daily for 30 days starting from day 13 post DSS-challenge. In kind it is functional, organism-based.
The subject of series [7] is Mus musculus. Put plainly: Anti-colitis activity against DSS-induced C57BL/6 mouse model of subchronic relapsing colitis assessed as reduction in colon swelling at 0.15 mg/kg, po administered once daily for 14 days starting from day 5 post DSS-challenge cotreated with 20 mg/kg berberine and measured after day 12 to day 18. In kind it is functional, organism-based.
The subject of series [8] is THP-1. In words: Antiinflammatory activity in human THP1 cells assessed as reduction in LPS-induced IL6 mRNA level at 1 uM incubated for 1 hr followed by LPS challenge and measured after 4 to 6 hrs by q-PCR method. In kind it is functional, cell-based.
Series [9] deals with THP-1. Put plainly: Antiinflammatory activity in human THP1 cells assessed as reduction in LPS-induced TNFalpha mRNA level at 1 uM incubated for 1 hr followed by LPS challenge and measured after 4 to 6 hrs by q-PCR method. In kind it is functional, cell-based.
Series [10] has as its system Mus musculus. Put plainly: Anti-colitis activity against DSS-induced C57BL/6 mouse model of chronic relapsing colitis assessed as reduction in stool bleeding at 0.15 mg/kg, po administered once daily for 30 days starting from day 13 post DSS-challenge cotreated with 20 mg/kg berberine and measured on day 43. In kind it is functional, organism-based.
Series [11] concerns Mus musculus. In words: Anti-colitis activity against DSS-induced C57BL/6 mouse model of chronic relapsing colitis assessed as reduction in stool bleeding at 0.3 mg/kg, po administered once daily for 30 days starting from day 13 post DSS-challenge measured on day 43. In kind it is functional, organism-based.
In series [12] the test system is Mus musculus. In words: Effect on total S1PR1 expression in DSS-induced C57BL/6 mouse model of subchronic relapsing colitis at 0.3 mg/kg, po administered once daily for 14 days starting from day 5 post DSS-challenge by Western blot analysis. In kind it is ADME, organism-based. The conditions noted are these: in vivo, 336 h. On the technique in general: In western blotting, separated proteins are transferred to a membrane and probed.

In series [13] the test system is Mus musculus. In words: Antiinflammatory activity against DSS-induced C57BL/6 mouse model of subchronic relapsing colitis assessed as reduction in S1PR1 mRNA level at 0.15 mg/kg, po administered once daily for 14 days starting from day 5 post DSS-challenge cotreated with 20 mg/kg berberine by RT-qPCR analysis. In kind it is functional, organism-based. In general terms: Quantitative PCR measures a nucleic acid by following its amplification.

The subject of series [14] is Mus musculus. Put plainly: Antiinflammatory activity against DSS-induced C57BL/6 mouse model of subchronic relapsing colitis assessed as reduction in IL17 mRNA level at 0.15 mg/kg, po administered once daily for 14 days starting from day 5 post DSS-challenge cotreated with 20 mg/kg berberine by RT-qPCR analysis. In kind it is functional, organism-based.
In series [15] the test system is Mus musculus. In words: Anti-colitis activity against DSS-induced C57BL/6 mouse model of chronic relapsing colitis assessed as reduction in stool bleeding at 0.15 mg/kg, po administered once daily for 30 days starting from day 13 post DSS-challenge cotreated with 20 mg/kg berberine and measured on day 38. In kind it is functional, organism-based.
The subject of series [16] is Mus musculus. Put plainly: Anti-colitis activity against DSS-induced C57BL/6 mouse model of chronic relapsing colitis assessed as reduction in stool consistency score at 0.15 mg/kg, po administered once daily for 30 days starting from day 13 post DSS-challenge cotreated with 20 mg/kg berberine measured on day 43. In kind it is functional, organism-based.
Series [17] in a line: Toxicity in DSS-induced C57BL/6 mouse model of chronic relapsing colitis assessed as induction of abnormalities in liver at 0.15 mg/kg, po administered once daily for 30 days starting from day 13 post DSS-challenge cotreated with 20 mg/kg berberine by hematoxylin and eosin staining based light microscopic analysis. In kind it is organism-based. The conditions noted are these: in vivo, 720 h.

Series [18] has as its system Mus musculus. In words: Antiinflammatory activity against DSS-induced C57BL/6 mouse model of subchronic relapsing colitis assessed as reduction in TNFalpha mRNA level at 0.15 mg/kg, po administered once daily for 14 days starting from day 5 post DSS-challenge cotreated with 20 mg/kg berberine by RT-qPCR analysis. In kind it is functional, organism-based.
Series [19] relates to Mus musculus. Put plainly: Anti-colitis activity against DSS-induced C57BL/6 mouse model of subchronic relapsing colitis assessed as reduction in DSS-induced colon swelling at 0.15 mg/kg, po administered once daily for 30 days starting from day 13 post DSS-challenge cotreated with 20 mg/kg berberine. In kind it is functional, organism-based.
In series [20] the test system is Mus musculus. Put plainly: Effect on total S1PR1 expression in DSS-induced C57BL/6 mouse model of subchronic relapsing colitis at 0.15 mg/kg, po administered once daily for 14 days starting from day 5 post DSS-challenge cotreated with 20 mg/kg berberine by Western blot analysis. The conditions noted are these: in vivo, 336 h. In kind it is ADME, organism-based.

For the molecule `CCCCCCCCc1ccc(CCC(N)(CO)CO)cc1.Cl` [FINGOLIMOD HYDROCHLORIDE], the result in the series on Mus musculus [1], in the series on Mus musculus [2], in the series with Mus musculus [3], with Mus musculus [4], in the series on Mus musculus [5] and with Mus musculus [6] was Active. The result in the series with THP-1 [8], in the series on THP-1 [9], in the series with Mus musculus [10], in the series with Mus musculus [11], in the series on Mus musculus [13] and in the series with Mus musculus [14] was Active. The result with Mus musculus [15], in the series on Mus musculus [16] and in the series on Mus musculus [18] was Active. The result in the series on Mus musculus [7] and in the series on Mus musculus [19] was inactive. The Activity entry (in the series on Mus musculus [12]; in series [17]; in the series on Mus musculus [20]) was “Non-Toxic” in each case.
